From PMC2970562, “High-Affinity Inhibitors of Human NAD^+-Dependent 15-Hydroxyprostaglandin Dehydrogenase: Mechanisms of Inhibition and Structure-Activity Relationships” (PLoS ONE, 2010)

target: T1, human 15-PGDH (Homo sapiens, UniProt P15428); assay: qHTS and 24-point re-test: fluorescence assay of NAD+ reduction to NADH on PGE2 oxidation (PubChem AID 894); type: biochemical; details: potency in 24-point titrations on re-test; 20 nM 15-PGDH, 1 mM NAD+, 30 µM PGE2, pH 8.0; read-out: qHTS IC50
T1 construct: comprising residues 3–256 of the human HPGD gene (GenBank identifier: 1203982); His6 (GHHHHHH, behind the TEV site) (C, cleaved yes); made in house; host or cells: E. coli BL21(DE3)-R3
T1 sequence (P15428 3-256): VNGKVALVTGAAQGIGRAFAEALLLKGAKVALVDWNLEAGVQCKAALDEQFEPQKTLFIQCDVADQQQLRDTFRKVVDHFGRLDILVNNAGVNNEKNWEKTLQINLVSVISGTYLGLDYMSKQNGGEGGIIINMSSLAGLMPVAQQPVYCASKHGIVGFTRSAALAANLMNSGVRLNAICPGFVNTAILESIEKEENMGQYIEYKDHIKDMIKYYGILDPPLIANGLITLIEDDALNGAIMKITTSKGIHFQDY
Experimental: The assay was miniaturized to a 4-µL volume in 1536-well format: enzyme (3 µL) was dispensed first, followed by a pintool transfer of library compounds dissolved in DMSO. After equilibration, a substrate dispense (1 µL) initiated the enzymatic reaction (see Materials and Methods, for detailed protocol description). […] Hits associated with low-efficacy (<40% maximum inhibition), incomplete curves, as well as those displaying only a single-point inhibition at the top concentration tested were eliminated from further consideration. Similarly, the collection of real-time kinetic data allowed the autofluorescence of each compound to be evaluated by comparing the initial fluorescence read at top concentration with the mean value of uninhibited assay controls: compounds whose top-concentration initial well fluorescence exceeded six standard deviations over the mean were flagged as potential autofluorescent artifacts, [28] (see example in supplementary information Figure S1E). The complete screening and followup results are available in PubChem (PubChem Assay ID 894).
The enzymatic reaction was performed in 50 mM Tris-HCl pH 8.0, containing 0.01% Tween 20. […] The high-throughput screen was performed on a fully integrated robotic system (Kalypsys Inc, San Diego, CA) as described elsewhere. Library compounds, arrayed as seven-point inter-plate concentration series, were screened from the lowest (3.5 nM) to the highest (57.5 µM) concentration, with plates containing DMSO only, serving to note any systematic drifts in the signal, interspersed evenly throughout the screen (approximately every 50 plates). Briefly, 3 µL of reagents were dispensed into 1536-well Greiner black solid-bottom assay plates using integrated nanoliter solenoid-technology dispensers. Compounds and controls (23 nL) were transferred via Kalypsys pintool equipped with 1,536-pin array (10-nL slotted pins; V&P Scientific, Palo Alto, CA). After a 15-minute incubation (to allow for interaction between compound and enzyme), a 1-µL substrate addition step initiated the reaction. Kinetic data were collected on a ViewLux High-throughput CCD imager (Perkin-Elmer) equipped with standard UV fluorescence optics (exc. 340 nm, em. 450 nm).
Starting fluorescence intensity and the change in fluorescence over the two-minute initial rate period were recorded for every well. Screening data were normalized against no-enzyme (64 wells, columns 3 and 4) and no-compound (32 wells located in column 1) controls, and concentration-response relationships were derived as described previously. A four-parameter Hill equation [47] was fitted to the concentration-response data using publicly available algorithms (http://www.ncgc.nih.gov/pub/openhts/curvefit/).

Row | Compound | IC50
1 | COc1ccc(NS(=O)(=O)Cc2ccccc2Cl)cc1 [Compound 42] | 316 nM
2 | Cc1ccc(-c2nnc(S)n2N=CC=Cc2ccccc2[N+](=O)[O-])cc1 [Compound 80] | 501 nM
3 | CCCC(CCCCCCC(=O)c1cn(CCCC(=O)OCC)c2ccccc12)c1ccc(CC(C)C)cc1 (centres unmarked) [Compound 34] | 794 nM
4 | O=C(O)CC1(CO)CC1 [Compound 9] | 224 nM
5 | CN(Cc1cccc(Cl)c1)c1ccc(S(C)(=O)=O)cc1S(C)(=O)=O [Compound 12] | 355 nM
6 | O=c1oc2c(O)c(O)cc3c(=O)oc4c(O)c(O)cc1c4c23 [Compound 86] | 45 nM
7 | CC1(C)Oc2c(N=C=O)ccc(Cl)c2C1=O [Compound 87] | 3160 nM
8 | COc1ccc2ccccc2c1C=C1N=C(c2ccc(C)c(C)c2)OC1=O [Compound 19] | 708 nM
9 | CCc1nc(N2CCN(C(=O)c3ccco3)CC2)c(C#N)c2c1COC(C)(C)C2 [Compound 70] | 3160 nM
10 | O=C(NCCc1ccc(Cl)cc1)C1CCC(CNc2c(N3CCCCC3)c(=O)c2=O)CC1 (centres unmarked) [Compound 53] | 17800 nM
11 | COc1ccc(/C=C2\SC(=O)N(CCNC(=O)c3ccc(Br)o3)C2=O)cc1OC [Compound 81] | 1580 nM
12 | Cc1ccccc1OCc1nnc(SCC(N)=O)o1 [Compound 47] | 159 nM
13 | O=C(CSc1n[nH]c(-c2ccccc2)n1)Nc1ncc(Br)cc1Br [Compound 40] | 1410 nM
14 | CCCCCCCCCOC(=O)c1ccc2c(c1)N(CCCS(=O)(=O)O)/C(=C\C=C\c1n(CCCS(=O)(=O)O)c3cc(C(=O)OCCCCCCCCC)ccc3[n+]1CC)N2CC [Compound 68] | 447 nM
15 | COc1cccc(NC(=O)N2CCC3(CC2)C(=O)N(CC(=O)NCc2ccc4c(c2)OCO4)CN3c2ccccc2)c1 [Compound 76] | 112 nM
16 | COC(=O)CSc1nc2cc(Br)c(C)nc2[nH]1 [Compound 58] | 15800 nM
17 | O=C(O)c1ccc(Cl)c(Cl)c1Br [Compound 52] | 14100 nM
18 | Cc1ccc2nc(Cl)c(CO)cc2c1 [Compound 46] | 1000 nM
19 | CN1CCCc2cccc(C[S+]([O-])c3ncc[nH]3)c21 (centres unmarked) [Compound 82] | 501 nM

same assay, conditions: read-out: qHTS IC50

Row | Compound | IC50
20 | CC1CCN(C(=O)c2ccc(CSc3ccc(Cl)cc3)cc2)CC1 [Compound 5] | 631 nM
21 | O=C(c1ccc(COc2ccccc2Br)cc1)N1CCCCC1 [Compound 7] | 89 nM

target: T1, human 15-PGDH; assay: Differential scanning fluorimetry (DSF), thermal stabilization; type: binding; details: with 200 µM NAD+; 1 µM protein, compound 50 or 250 µM; N/A = no unfolding transition observed in DSF
Experimental: A correlation between the ΔTm and the inhibitory potency has been shown in a number of protein-ligand systems, particularly for kinases [32]–[34].
Studies to assess the thermal stability of human 15-PGDH in presence of compounds were performed as described previously, with variations. Briefly, the protein was diluted to a final assay concentration of 1 µM in 100 mM Tris buffer pH 8.0, containing 0.01% Tween-20 and 1∶1000 SYPRO orange dye (Invitrogen). […] Compounds were added at a ratio of 1∶5 from appropriate stock solutions in 10% (v/v) DMSO to comprise either 50 or 250 µM final concentrations. Heat denaturation curves were recorded using a RT-PCR instrument (Mx3005p, Agilent) applying a temperature gradient of 2°C/min. […] 2.5 (ftp://ftp.sgc.ox.ac.uk/pub/biophysics) and PRISM 5.0 (GraphPad Software, Inc.).

Row | Compound | ∆Tm [°C] NAD+
22 | CC1CCN(C(=O)c2ccc(CSc3ccc(Cl)cc3)cc2)CC1 [Compound 5] | 2.3 °C
23 | COc1ccc(NS(=O)(=O)Cc2ccccc2Cl)cc1 [Compound 42] | 7.5 °C
24 | O=C(c1ccc(COc2ccccc2Br)cc1)N1CCCCC1 [Compound 7] | 7.1 °C
25 | Cc1ccc(-c2nnc(S)n2N=CC=Cc2ccccc2[N+](=O)[O-])cc1 [Compound 80] | 4.5 °C
26 | CCCC(CCCCCCC(=O)c1cn(CCCC(=O)OCC)c2ccccc12)c1ccc(CC(C)C)cc1 (centres unmarked) [Compound 34] | 2.0 °C
27 | O=C(O)CC1(CO)CC1 [Compound 9] | 2.2 °C
28 | CN(Cc1cccc(Cl)c1)c1ccc(S(C)(=O)=O)cc1S(C)(=O)=O [Compound 12] | 2.2 °C

same assay, conditions: with 200 µM NADH; 1 µM protein, compound 50 or 250 µM; N/A = no unfolding transition observed in DSF

Row | Compound | ∆Tm [°C] NADH
29 | CC1CCN(C(=O)c2ccc(CSc3ccc(Cl)cc3)cc2)CC1 [Compound 5] | 7.1 °C
30 | COc1ccc(NS(=O)(=O)Cc2ccccc2Cl)cc1 [Compound 42] | 4.8 °C
31 | O=C(c1ccc(COc2ccccc2Br)cc1)N1CCCCC1 [Compound 7] | 10.6 °C
32 | Cc1ccc(-c2nnc(S)n2N=CC=Cc2ccccc2[N+](=O)[O-])cc1 [Compound 80] | 0.2 °C
33 | CCCC(CCCCCCC(=O)c1cn(CCCC(=O)OCC)c2ccccc12)c1ccc(CC(C)C)cc1 (centres unmarked) [Compound 34] | 6.4 °C
34 | O=C(O)CC1(CO)CC1 [Compound 9] | 7.8 °C
35 | CN(Cc1cccc(Cl)c1)c1ccc(S(C)(=O)=O)cc1S(C)(=O)=O [Compound 12] | 7.1 °C

same assay, conditions: without cofactor; 1 µM protein, compound 50 or 250 µM; N/A = no unfolding transition observed in DSF

Row | Compound | ∆Tm [°C] apo
36 | CC1CCN(C(=O)c2ccc(CSc3ccc(Cl)cc3)cc2)CC1 [Compound 5] | -0.8 °C
37 | COc1ccc(NS(=O)(=O)Cc2ccccc2Cl)cc1 [Compound 42] | -0.5 °C
38 | O=C(c1ccc(COc2ccccc2Br)cc1)N1CCCCC1 [Compound 7] | -0.1 °C
39 | CCCC(CCCCCCC(=O)c1cn(CCCC(=O)OCC)c2ccccc12)c1ccc(CC(C)C)cc1 (centres unmarked) [Compound 34] | 0.1 °C
40 | O=C(O)CC1(CO)CC1 [Compound 9] | -1.1 °C
41 | CN(Cc1cccc(Cl)c1)c1ccc(S(C)(=O)=O)cc1S(C)(=O)=O [Compound 12] | -1.6 °C
